How the values were obtained:
SARS-CoV2 Spike RBD = target: T1, SARS-CoV2 Spike RBD (Severe acute respiratory syndrome coronavirus 2, UniProt P0DTC2); assay type: biochemical, SARS-CoV-2
T1 construct: purchased Sino Biological, Inc. 40592-V08H

SARS-CoV2 Spike S2 = target: T2, SARS-CoV2 Spike S2 (Severe acute respiratory syndrome coronavirus 2, UniProt P0DTC2); assay type: biochemical, SARS-CoV-2
T2 construct: SARS-CoV2 Spike S2 (Product number: 40590-V08H1); purchased Sino Biological, Inc. 40590-V08H1

MERS-CoV Spike S1 = MERS-CoV Spike S1 (Middle East respiratory syndrome-related coronavirus, UniProt K9N5Q8); assay type: biochemical
MERS-CoV Spike S1, sequence (K9N5Q8 18-751 limits assumed): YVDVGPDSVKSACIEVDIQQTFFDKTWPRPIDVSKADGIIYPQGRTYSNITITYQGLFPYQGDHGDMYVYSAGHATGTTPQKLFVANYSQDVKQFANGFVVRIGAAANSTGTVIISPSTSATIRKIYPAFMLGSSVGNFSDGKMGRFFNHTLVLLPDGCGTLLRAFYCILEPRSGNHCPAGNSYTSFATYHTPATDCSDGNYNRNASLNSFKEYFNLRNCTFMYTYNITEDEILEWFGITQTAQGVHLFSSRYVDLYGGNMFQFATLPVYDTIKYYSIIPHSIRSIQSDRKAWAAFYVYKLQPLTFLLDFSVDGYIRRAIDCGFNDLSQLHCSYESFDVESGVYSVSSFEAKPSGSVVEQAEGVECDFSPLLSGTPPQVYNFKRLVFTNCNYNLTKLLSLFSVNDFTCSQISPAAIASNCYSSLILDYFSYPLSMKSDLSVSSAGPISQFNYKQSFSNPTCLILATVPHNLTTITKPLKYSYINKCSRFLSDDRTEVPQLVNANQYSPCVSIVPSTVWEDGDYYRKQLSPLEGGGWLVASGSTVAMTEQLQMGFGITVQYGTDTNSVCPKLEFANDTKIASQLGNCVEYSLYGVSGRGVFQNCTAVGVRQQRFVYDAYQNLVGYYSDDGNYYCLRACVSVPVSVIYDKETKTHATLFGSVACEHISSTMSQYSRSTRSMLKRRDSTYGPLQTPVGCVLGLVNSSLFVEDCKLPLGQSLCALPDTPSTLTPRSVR

SARS-CoV Spike S1 = SARS-CoV Spike S1 (Severe acute respiratory syndrome coronavirus, UniProt P59594); assay type: biochemical
SARS-CoV2 Spike S1 = target: T3, SARS-CoV2 Spike S1 (Severe acute respiratory syndrome coronavirus 2, UniProt P0DTC2); assay type: biochemical, SARS-CoV-2
T3 construct: SARS-CoV2 Spike S1 (Product number: 40591-V08); purchased Sino Biological, Inc. 40591-V08

human serum-derived IgA = assay type: biochemical
[1] = system: α-amylase, Lactoferrin, Lysozyme, Mucin, EGF, IgA; assay type: biochemical

CCC(C)c1nc2c(CCCNC(=N)N)[nH]c(-c3c[nH]c4ccccc34)cn-2c1=O (centres unmarked) [Cypridina Luciferin]
luminescent reaction at the RBD domain (SARS-CoV2 Spike RBD): did not cause a reaction at the PBD domain at all | luminescent reaction at S2 (SARS-CoV2 Spike S2): caused a luminescent reaction | reaction with the protein of MERS-CoV (MERS-CoV Spike S1): did not react | reaction with spike protein of SARS-CoV (SARS-CoV Spike S1): reacted | luminescent reaction at S1 (SARS-CoV2 Spike S1): caused a luminescent reaction | reaction with spike protein of SARS-CoV-2 (SARS-CoV2 Spike S1): reacted | luminescent reaction with immunoglobulin protein IgA (human serum-derived IgA): did not cause a luminescent reaction | luminescent reaction with various proteins [1]: did not cause a luminescent reaction

From US20260016473A1 (priority 2022, published 2026)
